Columns and labels:
Type in all cases: in vivo
rat model of DKA [1] = assay: Brain blood perfusion (Laser Doppler Flowmetry) in diabetic ketoacidosis rats; conditions: day 4, FIG. 6, antagonist given with saline+insulin, result in words
Description: A burr hole was drilled into the rat skull approximately 2 millimeters (mm) to the left of midline, being careful not to disturb the brain tissue itself. Cerebrovascular perfusion was measured via a fiber optic probe (PF407) applied to the surface of the rat brain. The probe was connected to a Periflux PF2b 4000 Laser Doppler Flowmetry unit (Perimed, Stockholm, Sweden). The perfusion was determined by measuring the passage of red blood cells through the capillaries.
(§1) Group 4: Diabetic saline/insulin treated (D-Saline+insulin treated): Rats were injected with streptozotocin in citrate buffer (150 mg/kg ip) to induce diabetes and ketoacidosis. On day three, rats were treated with 1.5 U/kg regular insulin (Humulin® R (Regular human insulin, rDNA origin). On day four, saline and insulin treatment was carried out. Rats were infused via cannulated femoral vein saline, 0.9% NaCl at 80 mL/kg/hr and 1.5 U/kg/hr regular insulin for one hour. During the next two through four hours, rats were infused with saline, 0.9% NaCl at 40 mL/kg/hr and 1.5 U/kg/hr regular insulin (Yuen et al., 2008).
(§2) Group 5: Diabetic BMS-182874/saline/insulin treated (D-BMS+Saline+insulin treated): Rats were injected with streptozotocin in citrate buffer (150 mg/kg ip) to induce diabetes and ketoacidosis. On day three, rats were treated with 1.5 U/kg regular insulin. On day four, rats were administered a bolus dose of selective ETA receptor antagonist, BMS-182874 (9 mg/kg), then saline and insulin treatment was carried out. Rats were infused via cannulated femoral vein saline, 0.9% NaCl at 80 mL/kg/hr and 1.5 U/kg/hr regular insulin for one hour. During the next two through four hours rats were infused with saline, 0.9% NaCl at 40 mL/kg/hr and 1.5 U/kg/hr regular insulin.
(§3) Group 6: Diabetic BQ123/saline/insulin treated (D-BQ+saline+insulin treated): Same as above for Group 5, except BQ123 (1 mg/kg body weight) is used as a substitute for BMS-182874 (9 mg/kg).
(§4) Data are presented as mean±SEM. The significance of differences was estimated by one-way analysis of variance (intra group comparison with respect to base line data) and two-way analysis of variance (inter group comparison with respect to corresponding time points from each groups) followed by application of the Dunnett's Multiple Comparisons and Bonferroni test respectively. A P value of less than 0.05 was considered to be significant. The statistical analysis was processed with GraphPad Prism software Version 5.00.

rat model of DKA [2] = assay: Blood glucose in streptozotocin-induced diabetic ketoacidosis rats
Description: (§5) Normotensive Sprague Dawley rats were kept on fasting for 2 hours with unlimited access to water. After 2 hours of fasting, rats were injected intraperitoneally with 150 mg/kg of streptozotocin in 0.05 mol/L citric acid, pH 4.3 to induced diabetes (Lam et al., 2005; Yuen et al., 2008), while non-diabetic control rats received an intraperitoneal injection of 0.05 mol/L citrate buffer (Lam et al., 2005; Yuen et al., 2008). Rats were allowed unlimited access to tap water and food. Each day rats were weighed and urine ketone levels were estimated by Urine Reagent Strips, 1K Parameter. Prior to streptozotocin or citrate buffer injection, baseline blood glucose levels were assessed by One Touch Ultra blood glucose strips from Lifescan, Milpitas, Calif., and baseline blood ketone levels were estimated using Cardiochek blood ketone analyzer. Blood glucose and ketone were measured again on day three and four to ensure the onset of hyperglycemia and ketoacidosis. […] Blood samples were withdrawn from the femoral […] for baseline reading prior to start of treatment, after the first hour of treatment, and then at the end of the treatment (fifth hour of experiment).
(§6) The animals were allowed to stabilize for at least 20 minutes following surgical procedures. Body weight, blood glucose, urinary ketone, blood ketone, arterial blood gases, blood electrolytes, mean arterial pressure, pulse pressure, heart rate, brain blood perfusion, brain and lung water content were determined in the following groups
as §1, §2, §3, §4

rat model of DKA [3] = assay: Blood ketone levels in diabetic ketoacidosis rats
Description: as §5, §6, §1, §2, §3, §4

rat model of DKA [4] = assay: Cardiovascular parameters (MAP, pulse pressure, heart rate) in diabetic ketoacidosis rats; conditions: result in words
Source text: Rats were anaesthetized with urethane (1.5 g/kg ip.) and prepared for the determination of hemodynamic parameters (Gulati et al., 1997a; Gulati et al., 1997b). The anesthetized rats were shaved and immobilized to prepare for cannulation. A 2-3 centimeter (cm) incision was made above the femoral vein and artery and the vessels were dissected and cleaned. The left femoral vein was cannulated (PE-50 tubing, Clay Adams, Parsipanny, N.J.) and secured for drug administration. An ultra-miniature pressure transducer SPR-320 (2F Polyurethane), with a single pressure sensor side mounted at the tip (Millar Instruments, Houston, Tex.) was inserted in the left femoral artery to acquire the hemodynamic signals. Pressure transducer was connected to bridge amplifier (ML221 Bridge Amp; AD Instruments, Mountain View, Calif., USA) with Viking connector (AEC-10C) and the signals were continuously acquired at a sampling rate of 1000 S^−1 using Millar PowerLab 16/30 data acquisition system (AD Instruments, Mountain View, Calif., USA). Mean arterial pressure (MAP), heart rate (HR), and pulse pressure (PP) were determined and analyzed with LabChart-5.00 software program (Millar Instruments). After the experiment was completed, the animals were euthanized with a high dose of urethane (3 gm/kg).
as §1, §2, §3, §4

rat model of DKA [5] = assay: Arterial blood gases, electrolytes, lactate and hematocrit in diabetic ketoacidosis rats
Source text: Arterial blood pH, pO2, pCO2, Na^+, K^+, lactate, and hematocrit were monitored prior to, at one hour, and at the end of treatment. Blood samples were drawn from the arterial cannula using blood gas sampling syringes (Innovative Medical Technologies, Inc. Leawood, Kans.) and analyzed using a GEM Premier 3000 unit (Instrument Laboratory, Lexington, Mass.). Blood samples were withdrawn from the femoral artery for baseline reading prior to start of treatment, after the first hour of treatment, and then at the end of the treatment (fifth hour of experiment).
as §1, §2, §3, §4

[6] = day 4, compared to diabetic untreated rats, result in words
[7] = saline+insulin, alone or after bolus BMS-182874 9 mg/kg or BQ123 1 mg/kg
[8] = saline+insulin, alone or after bolus BMS-182874 9 mg/kg or BQ123 1 mg/kg, instrument floor 6.80

## Insulin: Humulin® R (Regular human insulin, rDNA origin), infused with saline
Rat model of DKA [1]
  effect on cerebral blood perfusion: produced a marked (#P<0.05) increase in cerebral blood perfusion
Rat model of DKA [2]; baseline before treatment on day 4, mean±SEM
  blood glucose, Day 4 (pre-tx): 530 ± 20 mg/dL
Rat model of DKA [2]; day 4, result in words
  effect of treatment on blood glucose: produced a significant decrease in blood glucose
Rat model of DKA [2]; saline+insulin infusion, alone or after bolus BMS-182874 9 mg/kg or BQ123 1 mg/kg, fifth hour, mean±SEM
  blood glucose, Day 4 (end of tx): 200 ± 20 mg/dL
Rat model of DKA [2]; saline+insulin infusion, alone or after bolus BMS-182874 9 mg/kg or BQ123 1 mg/kg, mean±SEM
  blood glucose, Day 4 (1 hour of tx): 444 ± 26 mg/dL
Rat model of DKA [3]; baseline before treatment, mean±SEM
  blood ketone levels, Day (pre tx): 31.925 ± 5.28 mg/dL
Rat model of DKA [3]; day 4, result in words (Table 2, FIG. 2)
  effect of treatment on blood ketones: produced a significant decrease in blood ketones
Rat model of DKA [3]; saline+insulin, alone or after bolus BMS-182874 9 mg/kg or BQ123 1 mg/kg, mean±SEM
  blood ketone levels, Day 4 (end of tx): 12.8 ± 4.04 mg/dL
Rat model of DKA [4]; day 4, FIG. 3, antagonist given with saline+insulin
  effect on mean arterial pressure: produced much less fall in arterial pressure compared to untreated rats
Rat model of DKA [4]; day 4, FIG. 4, antagonist given with saline+insulin
  effect on pulse pressure: produced much less fall in pulse pressure compared to untreated rats
Rat model of DKA [4]; day 4, FIG. 5, antagonist given with saline+insulin
  effect on heart rate: did not produce any decrease in heart rate compared to baseline
Rat model of DKA [5]; baseline, instrument could not record pH below 6.80, mean±SEM
  arterial blood pH, Day 4 (pre-tx): 6.81 ± 0.01
Rat model of DKA [5]; baseline, mean±SEM
  arterial blood pCO2, Day 4 (pre-tx): 30.40 ± 2.46 mmHg
  arterial blood pO2, Day 4 (pre-tx): 145.00 ± 10.84 mmHg
  blood K+ level, Day 4 (pre-tx): 3.82 ± 0.29 mmol/L
  blood Na+ level, Day 4 (pre-tx): 135.00 ± 2.17 mmol/L
  blood hematocrit (Hct), Day 4 (pre-tx): 49.80 ± 2.27%
Rat model of DKA [5]; day 4, antagonist given with saline+insulin, result in words
  effect of treatment on arterial blood pH (acidosis): did not produce any significant improvement in acidosis
Rat model of DKA [5]; [6]
  effect of treatment on blood K+ levels: significantly reduced the change in blood K^+ levels
  effect of treatment on blood lactate levels: significantly reduced the change in blood lactate levels
  effect of treatment on hematocrit: significantly reduced the hematocrit
Rat model of DKA [5]; [7]
  arterial blood pCO2, Day 4 (1 hour of tx): 29.00 ± 2.30 mmHg
  arterial blood pCO2, Day 4 (end of tx): 27.60 ± 2.21 mmHg
  arterial blood pO2, Day 4 (1 hour of tx): 160.20 ± 11.36 mmHg
  arterial blood pO2, Day 4 (end of tx): 155.60 ± 11.43 mmHg
  blood K+ level, Day 4 (1 hour tx): 2.92 ± 0.16 mmol/L
  blood K+ level, Day 4 (end of tx): 2.48 ± 0.24 mmol/L
  blood Na+ level, Day 4 (1 hour of tx): 141.60 ± 1.21 mmol/L
  blood Na+ level, Day 4 (end of tx): 148.60 ± 0.51 mmol/L
  blood hematocrit (Hct), Day 4 (1 hour of tx): 38.80 ± 1.80%
  blood hematocrit (Hct), Day 4 (end of tx): 30.20 ± 3.12 %
Rat model of DKA [5]; [8]
  arterial blood pH, Day 4 (1 hour of tx): 6.80 ± 0.01
  arterial blood pH, Day 4 (end of tx): 6.81 ± 0.04

Reference: US8980874B2, “Method and composition for treating diabetic ketoacidosis” (Midwestern University, priority 2009, dated 2015)
